Our source for the IC50 values is patent US10961200B2, “Small molecule inhibitors of lactate dehydrogenase and methods of use thereof” (THE UNITED STATES OF AMERICA, AS REPRESENTED BY THE …, priority 2014, dated 2021).

The target in one test is Human LDHA (Homo sapiens (Human), UniProt P00338). Kind of test: human LDHA primary biochemical assay (resazurin/diaphorase coupled, fluorescence). Conditions: LDHA inhibitory activity, activity level based on IC50 (Table 7). From the text:
Test compounds were placed in a Greiner Bio-One (Monroe, N.C.) 1536-well black solid bottom assay plate. 200 millimolar (mM) Tris HCl, pH 7.4, 100 micromolar […] EDTA and 0.01% TWEEN-20™, final concentration, was used as the assay buffer. The LDHA reagent was 2 nanomolar (nM) Human LDHA (Meridian Life Science, Inc., Memphis, Tenn.), final concentration, in assay buffer.
As usually defined, the IC50 is the midpoint of a concentration-inhibition curve. For the molecule `Cc1ccc(-c2nn(-c3nc(C(=O)O)cs3)cc2Cc2ccc(S(N)(=O)=O)cc2)cc1-c1ccc(F)c(F)c1` [Compound 492, 2-(3-(3′,4′-difluoro-6-methyl-[1,1′-biphenyl]-3-yl)-4-(4-sulfamoylbenzyl)-1H-pyrazol-1-yl)thiazole-4-carboxylic acid], the concentration for half-maximal inhibition (IC50) is 100 to 1000 nM.

The molecule `O=C(O)c1csc(-n2nc(-c3ccc(F)cc3)cc2O)n1` [Compound 425] came in with an IC50 of more than 57000 nM.

`NS(=O)(=O)c1ccc(Cc2c(-c3cccc(OCc4ccccc4)c3)nn(-c3nc(C(=O)O)cs3)c2CC2CC2)c(F)c1` [Compound 341] yielded an IC50 of less than 100 nM.

`COc1ccc(-c2cc(O)n(-c3nc(C(=O)O)cs3)n2)cc1` [Compound 424] showed an IC50 of more than 57000 nM.

Molecule `Cc1ccc(-c2nn(-c3nc(C(=O)O)cs3)cc2Cc2ccc(S(N)(=O)=O)cc2)cc1-c1cccnc1` [Compound 486, 2-(3-(4-methyl-3-(pyridin-3-yl)phenyl)-4-(4-sulfamoylbenzyl)-1H-pyrazol-1-yl)thiazole-4-carboxylic acid] registered a 50% inhibitory concentration (IC50) of less than 100 nM.

For `NS(=O)(=O)c1ccc(Cc2cnn(-c3nc(C(=O)O)cs3)c2-c2ccc3ccccc3c2)cc1` [Compound 474, 2-(5-(naphthalen-2-yl)-4-(4-sulfamoylbenzyl)-1H-pyrazol-1-yl)thiazole-4-carboxylic acid], the IC50 was less than 100 nM.

On to `NS(=O)(=O)c1ccc(Cc2c(CC3CC3)nn(-c3nc(C(=O)O)cs3)c2-c2cc(F)cc(-c3cccc(F)c3)c2)cc1` [Compound 525, 4-((3-(cyclopropylmethyl)-5-(3′,5-difluoro-[1,1′-biphenyl]-3-yl)-1-(4-((oxo-l3-methyl)-l3-oxidanyl)thiazol-2-yl)-1H-pyrazol-4-yl)methyl)benzenesulfonamide], for which the half-maximal inhibitory concentration (IC50) was in the range of 1000 to 57000 nM.

For the molecule `Nc1cccc(-c2cccc(-c3nn(-c4nc(C(=O)O)cs4)cc3Cc3ccc(S(N)(=O)=O)cc3)c2)c1` [Compound 524, 2-(3-(3′-amino-[1,1′-biphenyl]-3-yl)-4-(4-sulfamoylbenzyl)-1H-pyrazol-1-yl)thiazole-4-carboxylic acid], the 50% inhibitory concentration (IC50) lay within 100 to 1000 nM.

Turning to `CCOC(=O)c1csc(-n2nc(-c3ccc(F)c(-c4ccc(F)cc4)c3)c(Cc3ccc(S(N)(=O)=O)cc3F)c2CC2CC2)n1` [Compound 345], the concentration for half-maximal inhibition (IC50) fell in the range of 1000 to 57000 nM.

In the case of `NS(=O)(=O)c1ccc(Cc2c(-c3cccc(-c4cccc(F)c4)c3)nn(-c3nc(C(=O)O)cs3)c2C2CC2)cc1F` [Compound 351], the half-inhibitory concentration (IC50) is less than 100 nM.

The test is the same for the next values; noted with them: LDHA inhibitory activity, assay of Example 1; activity level classes.
The molecule `CCOC(=O)c1csc(-n2nc(-c3ccc(F)c(-c4ccc(C)cc4)c3)c(Cc3ccc(S(N)(=O)=O)c(F)c3)c2C2CC2)n1` [Compound 245] returned an IC50 of 1000 to 57000 nM.

`Nc1c(Cc2ccc(S(N)(=O)=O)cc2)c(-c2ccccc2)nn1-c1ccc(C(=O)O)nn1` [Compound 191, 6-(5-amino-3-phenyl-4-(4-sulfamoylbenzyl)-1H-pyrazol-1-yl)pyridazine-3-carboxylic acid] gave an IC50 of more than 57000 nM.

The molecule `O=C(O)c1csc(-n2nc(-c3cc(F)cc(F)c3)cc2O)n1` [Compound 95, 2-(3-(3,5-difluorophenyl)-5-hydroxy-1H-pyrazol-1-yl)thiazole-4-carboxylic acid] showed an IC50 of more than 57000 nM.

For `O=C(O)c1csc(-n2nc(-c3ccc(F)c(F)c3)c3cccnc32)n1` [Compound 25, 2-(3-(3,4-difluorophenyl)-1H-pyrazolo[3,4-b]pyridin-1-yl)thiazole-4-carboxylic acid], the IC50 was more than 57000 nM.

`CS(=O)(=O)c1cc(-c2cc(O)n(-c3nc(C(=O)O)cs3)n2)ccc1F` [Compound 94, 2-(3-(4-fluoro-3-(methylsulfonyl)phenyl)-5-hydroxy-1H-pyrazol-1-yl)thiazole-4-carboxylic acid] came in with a concentration for half-maximal inhibition (IC50) of more than 57000 nM.

`NS(=O)(=O)c1ccc(Cc2cn(-c3nc(C(=O)O)cs3)nc2-c2ccc(F)c(F)c2)cc1` [Compound 41, 2-(3-(3,4-difluorophenyl)-4-(4-sulfamoylbenzyl)-1H-pyrazol-1-yl)thiazole-4-carboxylic acid] showed a half-maximal inhibitory concentration (IC50) of less than 100 nM.

In the case of `CC(C)(C)OC(=O)c1csc(-n2nc(-c3ccc(F)c(F)c3)c(-c3ccccc3)c2O)n1` [Compound 118, tert-butyl 2-(3-(3,4-difluorophenyl)-5-hydroxy-4-phenyl-1H-pyrazol-1-yl)thiazole-4-carboxylate], the half-maximal inhibitory concentration (IC50) is more than 57000 nM.

Molecule `CCOC(=O)c1csc(-n2nc(-c3cccc(-c4ccccc4)c3)c(Cc3ccc(S(N)(=O)=O)cc3)c2CC2CC2)n1` [Compound 279] gave an IC50 of 1000 to 57000 nM.

In turn, `Cc1ccc(-c2cc(-c3c(Cc4ccc(S(N)(=O)=O)cc4F)c(CC4CC4)nn3-c3nc(C(=O)O)cs3)ccc2F)cc1` [Compound 285] gave an IC50 of 1000 to 57000 nM.

With `O=C(O)c1csc(-n2cc(Cc3ccc(C(F)(F)F)cc3)c(-c3ccccc3)n2)n1` [Compound 28, 2-(3-phenyl-4-(4-(trifluoromethyl)benzyl)-1H-pyrazol-1-yl)thiazole-4-carboxylic acid], the IC50 was more than 57000 nM.

`O=C(O)c1csc(-n2nc(-c3ccc(F)c(Cc4ccccc4)c3)cc2O)n1` [Compound 104, 2-(3-(3-benzyl-4-fluorophenyl)-5-hydroxy-1H-pyrazol-1-yl)thiazole-4-carboxylic acid] had an IC50 of more than 57000 nM.

The same test, now with this note: read-out: Inhibitory activity IC50.
In the case of `O=C(O)c1csc(-n2ccc(-c3cccc(-c4ccccc4)c3)n2)n1` [Compound 22, 2-(3-([1,1′-biphenyl]-3-yl)-1H-pyrazol-1-yl)thiazole-4-carboxylic acid], the concentration for half-maximal inhibition (IC50) fell in the range of 1000 to 57000 nM.

With `NS(=O)(=O)c1ccc(Oc2c(-c3ccccc3)nn(-c3nc(C(=O)O)cs3)c2C2CCCCC2)cc1` [Compound 173, 2-(5-cyclohexyl-3-phenyl-4-(4-sulfamoylphenoxy)-1H-pyrazol-1-yl)thiazole-4-carboxylic acid], the IC50 lay within 1000 to 57000 nM.

For `Cc1csc(-n2nc(-c3ccccc3)c(Cc3ccc(S(N)(=O)=O)cc3)c2N)n1` [Compound 86, 4-((5-amino-1-(4-methylthiazol-2-yl)-3-phenyl-1H-pyrazol-4-yl)methyl)benzenesulfonamide], the 50% inhibitory concentration (IC50) fell in the range of 1000 to 57000 nM.

In the case of `NS(=O)(=O)c1ccc(Cc2cn(-c3nc(C(=O)O)cs3)c3cccc(CN4CCOCC4)c23)cc1` [Compound 193, 2-(4-(morpholinomethyl)-3-(4-sulfamoylbenzyl)-1H-indol-1-yl)thiazole-4-carboxylic acid], the IC50 lay within 100 to 1000 nM.

`CCOC(=O)c1csc(-n2nc(-c3ccccc3)c(Oc3ccc(S(N)(=O)=O)cc3)c2C2CC2)n1` [Compound 164, ethyl 2-(5-cyclopropyl-3-phenyl-4-(4-sulfamoylphenoxy)-1H-pyrazol-1-yl)thiazole-4-carboxylate]: the 50% inhibitory concentration (IC50) fell in the range of 1000 to 57000 nM.

Consider `NS(=O)(=O)c1ccc(Cc2c(-c3ccccc3)nn(-c3nc(C(=O)O)cs3)c2Nc2cccnc2)cc1` [Compound 80, 2-(3-phenyl-5-(pyridin-3-ylamino)-4-(4-sulfamoylbenzyl)-1H-pyrazol-1-yl)thiazole-4-carboxylic acid], for which the IC50 was in the range of 1000 to 57000 nM.

In the case of `NS(=O)(=O)c1ccc(Cc2c(CC3CC3)nn(-c3nc(C(=O)O)cs3)c2-c2ccccc2)cc1` [Compound 188, 2-(3-(cyclopropylmethyl)-5-phenyl-4-(4-sulfamoylbenzyl)-1H-pyrazol-1-yl)thiazole-4-carboxylic acid], the 50% inhibitory concentration (IC50) is 100 to 1000 nM.
